# Read-outs that look alike come from different tables or passages of the source.
# How the values were obtained:
# human recombinant AOX1 = biological target: T1, human recombinant AOX1 (Homo sapiens, UniProt Q06278); experiment: Time-dependent inactivation of carbazeran 4-oxidation by human recombinant AOX1; type: biochemical; conditions: each 10 μM (raloxifene 0.02 μM), 30-minute preincubation, vs vehicle control without preincubation
# T1 construct: purchased Cypex Ltd CYP150
# T1 sequence (Q06278 1-1338): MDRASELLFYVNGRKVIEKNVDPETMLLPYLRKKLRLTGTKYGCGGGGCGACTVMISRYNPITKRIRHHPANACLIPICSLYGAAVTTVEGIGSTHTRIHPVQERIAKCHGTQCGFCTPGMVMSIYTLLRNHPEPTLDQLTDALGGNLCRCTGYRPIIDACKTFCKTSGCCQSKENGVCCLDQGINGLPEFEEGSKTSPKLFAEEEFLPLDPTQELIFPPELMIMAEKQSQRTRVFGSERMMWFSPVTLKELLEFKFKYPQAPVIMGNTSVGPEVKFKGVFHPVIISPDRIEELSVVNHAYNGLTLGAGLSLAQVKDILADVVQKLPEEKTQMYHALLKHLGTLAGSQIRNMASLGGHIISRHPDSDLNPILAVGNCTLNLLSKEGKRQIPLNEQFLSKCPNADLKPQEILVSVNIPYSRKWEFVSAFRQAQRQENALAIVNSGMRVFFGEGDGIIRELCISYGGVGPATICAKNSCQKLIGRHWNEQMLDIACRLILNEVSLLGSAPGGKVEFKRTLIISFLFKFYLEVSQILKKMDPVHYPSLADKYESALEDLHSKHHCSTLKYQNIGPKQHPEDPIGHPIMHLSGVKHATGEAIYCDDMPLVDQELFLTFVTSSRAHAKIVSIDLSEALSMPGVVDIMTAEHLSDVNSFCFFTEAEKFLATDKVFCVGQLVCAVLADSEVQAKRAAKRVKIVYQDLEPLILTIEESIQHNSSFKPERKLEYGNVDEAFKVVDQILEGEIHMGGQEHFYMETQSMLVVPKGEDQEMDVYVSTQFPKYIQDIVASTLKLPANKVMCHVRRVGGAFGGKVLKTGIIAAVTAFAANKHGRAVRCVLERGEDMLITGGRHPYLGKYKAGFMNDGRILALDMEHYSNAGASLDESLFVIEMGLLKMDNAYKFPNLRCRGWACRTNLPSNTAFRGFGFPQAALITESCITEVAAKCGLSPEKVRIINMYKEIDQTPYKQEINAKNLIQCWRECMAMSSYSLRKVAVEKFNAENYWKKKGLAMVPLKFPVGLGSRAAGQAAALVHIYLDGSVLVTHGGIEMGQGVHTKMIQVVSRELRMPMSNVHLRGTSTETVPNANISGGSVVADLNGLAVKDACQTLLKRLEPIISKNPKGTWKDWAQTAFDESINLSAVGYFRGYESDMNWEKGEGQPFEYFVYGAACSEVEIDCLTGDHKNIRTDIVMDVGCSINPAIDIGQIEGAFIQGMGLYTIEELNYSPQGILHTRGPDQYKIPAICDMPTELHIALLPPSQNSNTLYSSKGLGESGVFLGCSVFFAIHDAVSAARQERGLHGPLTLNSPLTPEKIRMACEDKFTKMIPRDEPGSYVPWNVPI
# Method: (§1) Carbazeran 4-oxidation and O^6-benzylguanine 8-oxidation were deployed as AOX1-selective catalytic markers.[27] The assay conditions (amount of cytosolic protein, incubation time, and substrate concentration) for carbazeran 4-oxidation catalyzed by human recombinant AOX1 and human/rat/mouse liver cytosols were optimized previously.[7]^,[25]
# (§2) Enzymatic reaction was initiated by adding human liver cytosol (100 μg). After the specified preincubation duration, an aliquot (10 μL) of the preincubation mixture was transferred to 190 μL of a prewarmed (for 3 minutes at 37 °C) secondary incubation mixture (total volume of 200 μL) containing potassium phosphate buffer and carbazeran (15 μM) or O^6-benzylguanine (150 μM), which yielded a 20-fold dilution of the primary incubation mixture. The secondary incubation mixture was incubated for 5 minutes at 37 °C before the enzymatic reaction was terminated with 200 μL of ice-cold acetonitrile containing carbazeran-d4 (2.5 nM final concentration; internal standard for 4-oxo-carbazeran) or tolbutamide (25 nM final concentration; internal standard for 8-oxo-O^6-benzylguanine). Each sample was immediately mixed by vortex, placed on ice, centrifuged at 16,000g for 15 minutes at 4 °C and stored at –30 °C until ultra-high performance liquid chromatography–tandem mass spectrometry (UPLC-MS/MS) analysis. For enzyme inactivation assays involving rat and mouse liver cytosol and recombinant AOX1 assays, the experimental conditions were similar to those of human liver cytosol, except that the amount of cytosolic protein was 200 μg (rat) and 150 μg (mouse), respectively, and the incubation time of the secondary incubation mixture was 60 minutes. For the recombinant AOX1 enzyme assay, the amount of enzyme was 100 μg, the incubation time of the secondary incubation mixture was 15 minutes, and the total volume of the primary and secondary incubation mixtures was reduced to 100 μL.
# An aliquot (10 μL) of the primary incubation mixture was transferred to a secondary incubation mixture containing carbazeran (15 μM) and incubated for (A) 180, (B) 5, or (C, D) 120 minutes.
# [1] = Pharmacokinetics study in mice: erlotinib pretreatment, carbazeran and 4-oxo-carbazeran; type: in vivo, BALB/c mice; conditions: for AUC(0-inf) / Cmax / Tmax / AUC0-∞: blood; for AUC(0-inf) / Cmax / CL/F / MRT inf / Tmax / AUC0-∞ / MRT0-∞: carbazeran 10 mg/kg p.o.; for CL/F: read-out: Apparent oral clearance (CL/F) (converted); for MRT inf: read-out: MRT0-∞
# Method: BALB/c mice (male, ∼8 weeks old) were purchased and housed at the Biological Resource Centre, Agency for Science, Technology and Research (A∗STAR). The experimental protocol was approved by the A∗STAR Institutional Review Board. […] Blood (12.5 μL) was drawn from the tail vein (with a needle prick) at various times (0.25, 0.5, 0.75, 1, 2, 3, 4, 6, and 8 hours) after carbazeran dosing. The blood samples were diluted 2 times with 12.5 μL of water. Acetonitrile containing the internal standard (carbazeran-d4, 4 nM in 75 μL acetonitrile and 3 nM in final sample volume of 100 μL) was added to the blood samples to precipitate proteins. […] Blank and standard calibration samples were prepared from control mice that were not treated with any chemicals. Pharmacokinetic data were analyzed by noncompartmental analysis using Phoenix WinNonlin 6.3 (Certara).
# At the end of the last blood collection (8 hour post-carbazeran dosing), the mice were sacrificed. […] The tissue samples were homogenized, and a 12.5 μL aliquot of the homogenate was diluted with an equal volume of water. Acetonitrile containing the internal standard (carbazeran-d4, 4 nM in 75 μL acetonitrile and 3 nM in final sample volume of 100 μL) was added to the diluted tissue samples (25 μL) to precipitate the proteins.
# [2] = biological target: T2, human liver cytosolic AOX1 (Homo sapiens, UniProt Q06278); experiment: Effects of a competing AOX1 substrate and a competitive AOX1 inhibitor on AOX1 inactivation; type: biochemical; parameters: Enzymatic reaction was initiated by adding human liver cytosol (100 μg); tissue Corning, Inc. (Gentest brand) 452115; host or cells: human liver cytosol, pool of 150 donors; conditions: 120 and 240 μM, human liver cytosol (data not shown)
# T2 sequence (Q06278 1-1338): T1 sequence (Q06278 1-1338)
# Method: The molar ratio of O^6-benzylguanine (120, 240, and 480 μM) to 3-vinylerlotinib (10 μM) was 12, 24, and 48, O^6-benzylguanine to 4′-methylerlotinib (3 μM) was 40, 80, and 160, and O^6-benzylguanine to 2-methylerlotinib (1 μM) was 120, 240, and 480, respectively. […] Each standard incubation mixture was subjected to the same procedures as described in Enzyme Inactivation Experiments. The residual AOX1 enzyme activity was determined by the carbazeran 4-oxidation or O^6-benzylguanine 8-oxidation assay.
# [3] = biological target: T2, human liver cytosolic AOX1; experiment: Enzyme inactivation of human liver cytosolic AOX1-mediated carbazeran 4-oxidation
# Method: as §1, §2
# Preliminary experiments were performed to optimize the incubation time and concentration of an inactivator to ensure a log-linear decrease in enzyme activity over time and that the kobs versus inactivator concentration plot reaches a plateau for the determination of the kinact value. The observed first-order rate constant for inactivation (kobs), maximal inactivation rate constant (kinact), half-maximal inactivation concentration (KI), and the time required for half of the enzyme molecules to be inactivated (t1/2) were calculated as described in our previous publication.[28]
# [4] = biological target: T2, human liver cytosolic AOX1; experiment: Partition ratio determination (titration, human liver cytosol); type: biochemical; parameters: Enzymatic reaction was initiated by adding human liver cytosol (100 μg); tissue Corning, Inc. (Gentest brand) 452115; host or cells: human liver cytosol, pool of 150 donors
# Method: The enzyme kinetic experiments were conducted as described above. The incubation was allowed to proceed until saturation of enzyme has been reached (6 or 18 minutes, as specified in each figure legend). Carbazeran 4-oxidation was plotted against the ratio of inactivator concentration to AOX1 protein concentration in the incubation mixture of 200 μL. The specific lot of human liver cytosol (#38292) used in this study contained 1.05 ± 0.01 pmol/μL (mean ± SD) of AOX1 protein, as assessed by capillary nanoproteomic immunoassay.[27] The turnover number was the extrapolation of the intercept of the 2 linear regression lines to the x-axis, which was determined by solving the 2 linear regression equations. The partition ratio was calculated by subtracting the turnover number by 1, assuming 1:1 stoichiometry between the inactivator and the enzyme.[29]
# [5] = biological target: T2, human liver cytosolic AOX1; type: biochemical; parameters: Enzymatic reaction was initiated by adding human liver cytosol (100 μg); tissue Corning, Inc. (Gentest brand) 452115; host or cells: human liver cytosol, pool of 150 donors; conditions: potassium ferricyanide 2 mM, 0 or 6 min preincubation
# Method: The residual AOX1 enzyme activity was determined by the carbazeran 4-oxidation assay.
# A test chemical at a concentration described above was incubated with human liver cytosol (100 μg protein) at 37 °C for 0 or 6 minutes. […] After 10-minute incubation, an aliquot (50 μL) of the […] (total volume of 200 μL) containing potassium phosphate buffer and carbazeran (15 μM), which yielded a 4-fold dilution of the secondary incubation mixture. The residual AOX1 enzyme activity was determined as described above.
# [6] = male, BALB/c, mouse, whole blood, po, 10 mg/kg, Control (vehicle pretreatment)
# [7] = male, BALB/c, mouse, whole blood, po, 10 mg/kg, erlotinib 100 mg/kg p.o. 2 h before
# [8] = human liver cytosol, carbazeran 4-oxidation
# [9] = erlotinib 100 mg/kg p.o. 2 h before
smiles,measurement,setting,value
COc1cc2ncnc(Nc3ccc(F)c(Cl)c3)c2cc1O [O-desmorpholinopropylgefitinib],decrease in carbazeran 4-oxidation,human recombinant AOX1,did not decrease
"CCNC(=O)OC1CCN(c2nncc3cc(OC)c(OC)cc23)CC1 [Carbazeran, carbazeran]",AUC(0-inf),[1]; [6],2.52 ± 0.46 µM·h
same,Cmax,[1]; [6],3470 ± 1390 nM
same,AUC(0-inf),[1]; [7],4.6 ± 2.02 µM·h
same,Cmax,[1]; [7],3530 ± 2180 nM
same,CL/F,[1]; [6],188 mL/min/kg
same,MRT inf,[1]; [6],79.2 ± 26.4 min
same,CL/F,[1]; [7],114 mL/min/kg
same,MRT inf,[1]; [7],139 ± 45.6 min
same,Tmax,"[1]; male, BALB/c, mouse, whole blood, po, Control (vehicle pretreatment), read-out: Tmax",17.4 ± 5.4 min
Oc1cc2ncnc(Nc3ccc(F)c(Cl)c3)c2cc1OCCCN1CCOCC1 [O-desmethylgefitinib],decrease in carbazeran 4-oxidation,human recombinant AOX1,did not decrease
Nc1nc(OCc2ccccc2)c2nc[nH]c2n1 [O^6-benzylguanine],effect of O^6-benzylguanine alone on carbazeran 4-oxidation,[2],did not affect the activity
"CCc1cccc(Nc2ncnc3cc(OCCOC)c(OCCOC)cc23)c1 [Tetrahydroerlotinib, tetrahydroerlotinib]",KI,"[3]; half-maximal inactivation concentration, human liver cytosol, carbazeran 4-oxidation",No inactivation
same,kinact,"[3]; human liver cytosol 100 μg, carbazeran 15 μM, 37 °C",No inactivation
same,decrease in carbazeran 4-oxidation,"[3]; human liver cytosol, 10 μM (raloxifene 0.02 μM), 30-minute preincubation",did not decrease
same,decrease in carbazeran 4-oxidation,"[3]; human liver cytosol, 50 μM, 120 minutes preincubation",did not decrease
same,Inactivation t1/2,[3]; [8],No inactivation
same,kinact/KI,[3]; [8],No inactivation
same,"KI,u","[3]; unbound, KI,u = fu × KI, fu at 10 μM in human liver cytosol",No inactivation
same,Turnover Number,[4]; human liver cytosol,No inactivation
same,Partition Ratio,[4]; turnover number minus 1,No inactivation
same,effect of coincubation or postincubation with potassium ferricyanide on AOX1 inactivation,[5],not changed
"CCNC(=O)OC1CCN(c2n[nH]c(=O)c3cc(OC)c(OC)cc23)CC1 [4-Oxo-Carbazeran, 4-oxo-carbazeran]",Ratio of AUC0-∞ (metabolite) to AUC0-∞ (parent),[1]; Control (vehicle pretreatment),0.31 ± 0.06
same,Ratio of AUC0-∞ (metabolite) to AUC0-∞ (parent),"[1]; Control (vehicle pretreatment), listed as 4-oxo-carbazeran",0.31
same,AUC0-∞,[1]; Control (vehicle pretreatment),0.78 ± 0.23 µM·h
same,Cmax,[1]; Control (vehicle pretreatment),920 ± 390 nM
same,Tmax,[1]; Control (vehicle pretreatment),19.2 ± 7.2 min
same,AUC0-∞,[1]; [9],0.027 ± 0.009∗∗∗∗ μM.h
same,Cmax,[1]; [9],8 ± 3 nM
same,Tmax,[1]; [9],27.6 ± 16.2 min
same,MRT0-∞,[1]; Control (vehicle pretreatment),0.98 ± 0.19 h
same,MRT0-∞,[1]; [9],8.98 ± 8.73∗ h
same,Ratio of AUC0-∞ (metabolite) to AUC0-∞ (parent),[1]; erlotinib 100 mg/kg p.o. 2 h before carbazeran,0.007 ± 0.003∗∗∗∗

# Reference: paper PMC12881681 (Molecular Pharmacology, 2025)
